Assays:
[1] = test system: Murine L929 cells; experiment: Necroptosis inhibition assay in L929 cells (mTNFα + zVAD, Sytox Green); assay type: cell-based; settings: Mus musculus, 10 ng/ml mTNFα and 20 μM zVAD, 6 hours, Sytox Green fluorescence
Protocol: (§1) Murine L929 cells (ATCC-CCL-1) were seeded at 10,000 cells/well in a 96-well plate. Cells were treated 48 hours after seeding with 10 ng/ml mTNFα (R&D Systems) and 20 μM zVAD (ChemShuttle) in the presence of different concentrations of compounds ranging from […] to 0.01 μM. Cells treated with 0.1% DMSO or cells treated with TNFα+zVAD were used as control and vehicle respectively.
Assay plates containing cells were incubated for 6 hours at 37° C. and 5% CO2. Necroptosis was assessed using Sytox Green Nucleic Acid Stain (Invitrogen). After incubation, 100 μL of Sytox dye at 2 μM (2×) diluted in HBSS 1× was added in each well and incubated for 15 min at room temperature. Fluorescence (500ex/530em) was recorded using the Cytation 5 microplate reader (Biotek).
(§2) Percentage of necroptosis inhibition was calculated as the percent compared to control and vehicle conditions which correspond to 100% and 0% respectively. The half-maximum necroptosis inhibition (IC50) levels were calculated using GraphPad Prism software and are shown in Table 3 (NT represents compound not tested).

[2] = test system: Human HT-29 cells; experiment: Necroptosis inhibition assay in HT-29 cells (hTNFα + zVAD + SMAC mimetic, Sytox Green/Hoechst); assay type: cell-based; settings: 10 ng/ml hTNFα, 20 μM zVAD and 100 nM SMAC mimetic, 6 hours, Sytox/Hoechst positive cells, read-out: HT29 necroptosis inhibition IC50
Protocol: as §1, with “Human HT-29” for “Murine L929”, “(ATCC-HTB-38)” for “(ATCC-CCL-1)”, “hTNFα” for “mTNFα”, “Systems),” for “Systems) and”, “(ChemShuttle) and 100 nM SMAC mimetic (MedChem Express)” for “(ChemShuttle)”, “TNFα+zVAD+SMAC mimetic” for “TNFα+zVAD”
Assay plates containing cells were incubated for 6 hours at 37° C. and 5% CO2. Necroptosis was assessed using Sytox Green Nucleic Acid Stain (Invitrogen) and Hoechst staining. After incubation, 100 μL of Sytox dye at 2 μM (2×) diluted in HBSS 1× was added to each well. At the same time, Hoechst stain is added to a final concentration of 10 μM and incubated for 15 min at room temperature. Images were taken for Sytox and Hoechst using the Cytation 5 microplate reader with DAPI and GFP filter cubes (Biotek). Sytox and Hoechst positive cells were counted with CellProfiler software.
as §2

[3] = target: T1, RIPK3 (Homo sapiens, UniProt Q9Y572); experiment: RIPK3 kinase assay (radiometric HotSpot, Reaction Biology Corporation); assay type: biochemical
T1 construct: purchased Reaction Biology Corporation (RBC), Malvern, USA (contract assay service)
Protocol: The assays were performed in Reaction Biology Corporation (RBC), Malvern, USA. Compounds were diluted with DMSO to a final stock concentration of 10 mM and then were tested in a 10-dose IC50 mode with a 3-fold serial dilution starting at […]. All the reactions were carried out at 10 μM ATP and MBP 20 μM as substrates. RIPK3 activity was determined using radiometric HotSpot™ kinase assay protocol and IC50 values were calculated use GraphPad Prism software.

T1 sequence (Q9Y572 whole entry): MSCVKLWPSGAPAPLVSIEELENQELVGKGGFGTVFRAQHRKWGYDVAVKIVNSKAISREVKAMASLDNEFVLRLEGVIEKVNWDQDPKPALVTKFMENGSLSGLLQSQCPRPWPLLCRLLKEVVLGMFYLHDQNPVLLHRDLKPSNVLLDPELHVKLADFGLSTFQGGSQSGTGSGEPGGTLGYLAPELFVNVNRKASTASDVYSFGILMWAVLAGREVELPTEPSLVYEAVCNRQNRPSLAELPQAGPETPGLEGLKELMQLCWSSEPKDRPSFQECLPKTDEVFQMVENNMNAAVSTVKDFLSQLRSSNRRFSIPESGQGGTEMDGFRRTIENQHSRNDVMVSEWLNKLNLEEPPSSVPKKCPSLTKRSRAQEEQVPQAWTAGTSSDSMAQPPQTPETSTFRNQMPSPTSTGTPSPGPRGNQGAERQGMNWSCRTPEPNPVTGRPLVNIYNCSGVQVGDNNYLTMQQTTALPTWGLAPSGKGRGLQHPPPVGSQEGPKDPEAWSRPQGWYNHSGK

Compound	IC50 [1] [nM]	IC50 [2] [nM]	IC50 [3] [nM]
Fc1cc(CN2CCC3(CCNCC3)CC2)ccc1-c1ccc2c(Nc3ccc4scnc4c3)ccnc2c1 [Compound 291, N-(7-(4-((3,9-diazaspiro[5.5]undecan-3-yl)methyl)-2-fluorophenyl)quinolin-4-yl)benzo[d]thiazol-5-amine]	< 10000	< 1000	
O=C(NC1CCOCC1)c1ccc(-c2ccc3nccc(Nc4ccc5scnc5c4)c3c2)c(F)c1 [Compound 325, 4-(4-(benzo[d]thiazol-5-ylamino)quinolin-6-yl)-3-fluoro-N-(tetrahydro-2H-pyran-4-yl)benzamide]	665	69.7	
CN1CCN(C(=O)c2ccc(-c3ccc4nccc(Nc5ccc6scnc6c5)c4c3)c(F)c2)CC1=O [Compound 273, 4-(4-(4-(benzo[d]thiazol-5-ylamino)quinolin-6-yl)-3-fluorobenzoyl)-1-methylpiperazin-2-one]	1100	780	
CN1CCN(C(=O)c2ccc(-c3ccc4nccc(Nc5ccc6scnc6c5)c4c3)c(F)c2)CC1(C)C [Compound 315, (4-(4-(benzo[d]thiazol-5-ylamino)quinolin-6-yl)-3-fluorophenyl)(3,3,4-trimethylpiperazin-1-yl)methanone]	396	120	
CC(C)S(=O)(=O)c1ccc2nccc(Nc3ccc4scnc4c3)c2c1 [Compound A, N-(6-(isopropylsulfonyl)quinolin-4-yl)benzo[d]thiazol-5-amine, reference compound]	1960	1260	
Fc1cc(CN2CC3CNCC3C2)ccc1-c1ccc2nccc(Nc3ccc4scnc4c3)c2c1 (stereo not shown) [Compound 299, N-(6-(2-fluoro-4-((hexahydropyrrolo[3,4-c]pyrrol-2(1H)-yl)methyl)phenyl)quinolin-4-yl)benzo[d]thiazol-5-amine]	987	462	
CN1CCN(Cc2ccc(-c3ccc4c(Nc5ccc6scnc6c5)ccnc4c3)c(F)c2)CC1=O [Compound 327, 4-(4-(4-(benzo[d]thiazol-5-ylamino)quinolin-7-yl)-3-fluorobenzyl)-1-methylpiperazin-2-one]	160	25.2	
Fc1cc(OC2CCNCC2)ccc1-c1ccc2nccc(Nc3ccc4scnc4c3)c2c1 [Compound 295, N-(6-(2-fluoro-4-(piperidin-4-yloxy)phenyl)quinolin-4-yl)benzo[d]thiazol-5-amine]	781	147	
C[C@@H]1CN(C(=O)c2ccc(-c3ccc4nccc(Nc5ccc6scnc6c5)c4c3)c(F)c2)C[C@H](C)N1 [Compound 293, (4-(4-(benzo[d]thiazol-5-ylamino)quinolin-6-yl)-3-fluorophenyl)((3R,5S)-3,5-dimethylpiperazin-1-yl)methanone]	347	32.3	
CC1CN(C(=O)c2ccc(-c3ccc4nccc(Nc5ccc6scnc6c5)c4c3)c(F)c2)CCN1 (stereo not shown) [Compound 286, (4-(4-(benzo[d]thiazol-5-ylamino)quinolin-6-yl)-3-fluorophenyl)(3-methylpiperazin-1-yl)methanone]	852	75.8	
O=C(c1ccc(-c2ccc3c(Nc4ccc5scnc5c4)ccnc3c2)c(F)c1)N1[C@@H]2CNC[C@H]1C2 [Compound 313, (4-(4-(benzo[d]thiazol-5-ylamino)quinolin-7-yl)-3-fluorophenyl)((1R,5S)-3,6-diazabicyclo[3.1.1]heptan-6-yl)methanone]	402	302	
CC1(O)CCN(Cc2ccc(-c3ccc4nccc(Nc5ccc6scnc6c5)c4c3)c(F)c2)CC1 [Compound 319, 1-(4-(4-(benzo[d]thiazol-5-ylamino)quinolin-6-yl)-3-fluorobenzyl)-4-methylpiperidin-4-ol]	301	284	
Cc1cc(-c2ccc3c(Nc4ccc5scnc5c4)ccnc3c2)c(F)cc1C(=O)N1CCNCC1 [Compound 297, (4-(4-(benzo[d]thiazol-5-ylamino)quinolin-7-yl)-5-fluoro-2-methylphenyl)(piperazin-1-yl)methanone]	282	174	
CN1CCN(Cc2ccc(-c3ccc4nccc(Nc5ccc6scnc6c5)c4c3)cc2F)CC1 [Compound 21, N-(6-(3-fluoro-4-((4-methylpiperazin-1-yl)methyl)phenyl)quinolin-4-yl)benzo[d]thiazol-5-amine]	< 10000		1.51
O=C(c1ccc(-c2ccc3nccc(Nc4ccc5scnc5c4)c3c2)c(F)c1)N1C[C@H]2CNC[C@H]2C1 [Compound 306, (4-(4-(benzo[d]thiazol-5-ylamino)quinolin-6-yl)-3-fluorophenyl)((3aR,6aS)-hexahydropyrrolo[3,4-c]pyrrol-2(1H)-yl)methanone]	< 10000	148	
O=C(c1ccc(-c2ccc3nccc(Nc4ccc5scnc5c4)c3c2)c(F)c1)N1CC2(CCOCC2)C1 [Compound 251, (4-(4-(benzo[d]thiazol-5-ylamino)quinolin-6-yl)-3-fluorophenyl)(7-oxa-2-azaspiro[3.5]nonan-2-yl)methanone]	582	822	
O=C(c1ccc(-c2ccc3c(Nc4ccc5scnc5c4)ccnc3c2)c(F)c1)N1CCNCC1 [Compound 250, (4-(4-(benzo[d]thiazol-5-ylamino)quinolin-7-yl)-3-fluorophenyl)(piperazin-1-yl)methanone]	344	2530	
CNC(=O)CNCc1ccc(-c2ccc3nccc(Nc4ccc5scnc5c4)c3c2)c(F)c1 [Compound 320, 2-((4-(4-(benzo[d]thiazol-5-ylamino)quinolin-6-yl)-3-fluorobenzyl)amino)-N-methylacetamide]	444	243	
Fc1cc(CN2CCC3(CCNCC3)CC2)ccc1-c1ccc2nccc(Nc3ccc4scnc4c3)c2c1 [Compound 290, N-(6-(4-((3,9-diazaspiro[5.5]undecan-3-yl)methyl)-2-fluorophenyl)quinolin-4-yl)benzo[d]thiazol-5-amine]	< 10000	< 1000	
CC1(O)CCN(C(=O)c2ccc(-c3ccc4nccc(Nc5ccc6scnc6c5)c4c3)c(F)c2)CC1 [Compound 318, (4-(4-(benzo[d]thiazol-5-ylamino)quinolin-6-yl)-3-fluorophenyl)(4-hydroxy-4-methylpiperidin-1-yl)methanone]	686	53.7	
O=C(c1ccc(-c2ccc3nccc(Nc4ccc5scnc5c4)c3c2)cc1F)N1CC2CNCC2C1 (stereo not shown) [Compound 305, (4-(4-(benzo[d]thiazol-5-ylamino)quinolin-6-yl)-2-fluorophenyl)(hexahydropyrrolo[3,4-c]pyrrol-2(1H)-yl)methanone]	> 10000	402	
COC1CCN(C(=O)c2ccc(-c3ccc4nccc(Nc5ccc6scnc6c5)c4c3)c(F)c2)CC1 [Compound 321, (4-(4-(benzo[d]thiazol-5-ylamino)quinolin-6-yl)-3-fluorophenyl)(4-methoxypiperidin-1-yl)methanone]	238	109	
CN1CCN(C(=O)c2ccc(-c3ccc4c(Nc5ccc6scnc6c5)ccnc4c3)c(F)c2)CC1=O [Compound 274, 4-(4-(4-(benzo[d]thiazol-5-ylamino)quinolin-7-yl)-3-fluorobenzoyl)-1-methylpiperazin-2-one]	515	1190	
O=C(c1ccc(-c2ccc3c(Nc4ccc5scnc5c4)ccnc3c2)c(F)c1)N1C[C@@H]2C[C@H]1CN2 [Compound 301, (4-(4-(benzo[d]thiazol-5-ylamino)quinolin-7-yl)-3-fluorophenyl)((1S,4S)-2,5-diazabicyclo[2.2.1]heptan-2-yl)methanone]	427	197	
O=C(c1ccc(-c2ccc3nccc(Nc4ccc5scnc5c4)c3c2)c(F)c1)N1CC2(COC2)C1 [Compound 324, (4-(4-(benzo[d]thiazol-5-ylamino)quinolin-6-yl)-3-fluorophenyl)(2-oxa-6-azaspiro[3.3]heptan-6-yl)methanone]	223	76.5	
O=C(c1ccc(-c2ccc3nccc(Nc4ccc5scnc5c4)c3c2)c(F)c1)N1CCC(O)CC1 [Compound 317, (4-(4-(benzo[d]thiazol-5-ylamino)quinolin-6-yl)-3-fluorophenyl)(4-hydroxypiperidin-1-yl)methanone]	707	169	
